Laboratory results: EP2805705B1, “Packaging with one or more administration units comprising a sodium salt of (R)-3-[6-amino-pyridin-3-yl]-2-(1-cyclohexyl-1 H-imidazol-4-yl)-propionic acid” (IP Gesellschaft für Management mbH, priority 2013, dated 2014)

Key:
Format in all cases: physicochemical
[1] = Maturation experiments (slurry conversion), relative stability; settings: among polymorphs 1, 2 and hydrate 1, suspensions kept five days at 20 °C, then dried at 40°C and <100 mbar
Description: Maturation experiments: By maturation experiments (slurry conversion) at 20 °C the relative stability of polymorphs 1 ({drug5b}) and 2 ({drug5c}) and hydrate 1 ({drug5e}) was investigated. A polymorph mixture of 81 mg (Mixture of Polymorph 1 ({drug5b}) and Polymorph 2 ({drug5c})), 83 mg of Polymorph 1 ({drug5b}) and 60 mg of hydrate 1 ({drug5e}) was prepared. The mixture was subjected to XRPD analysis to confirm the presence of all three polymorphs and then distributed into five capillaries. These samples were kept in suspension at 20°C for five days. After X-ray powder diffraction measurement of the suspensions these were dried over night at 40°C and <100mbar and again subjected to X-ray diffraction. Maturation experiments (a) to (e) were performed under the specified conditions, starting with the polymorph mixture described above. (a) The polymorph mixture was suspended in water. After stirring the suspension for five days at 20 °C, the suspension was analyzed via XRPD and a mixture of polymorph 1 ({drug5b}) and hydrate 1 ({drug5e}) was proven. […] (b) The polymorph mixture was suspended in water/methanol 1:1 (vol.: vol.). […] (c) The polymorph mixture was suspended in 2-propanol. […] (d) The polymorph mixture was suspended in acetone. […] (e) The polymorph mixture was suspended in ethylacetate. […]

[2] = Solubility in water (statement, no method given); settings: result in words
[3] = Dynamic vapor sorption (DVS), DVS-1 instrument, two cycles at 25 °C; settings: for weight increase in the sorption step: 25 °C
[4] = Determination of solubility in a mixture of acetone and water (4:1, by volume); settings: acetone and water (4:1, by volume)
Description: Determination of solubility: For the determination of the solubility in a mixture of acetone and water (4:1, by volume), samples of 0.5 mg to 50 mg of the test substances were suspended in a defined amount of the solvent (800 mg to 1200 mg) in screw cap vials with a magnetic stirring bar, which were placed in a temperature-controlled multiple stirring device equipped for transmission measurement (Avantium Crystal 16). With stirring at 700 rpm, the vials were cooled from room temperature to 0 °C and then heated to 60 °C with a heating rate of 3 °C/h, kept at 60 °C for 2 h and cooled again to 0 °C with a cooling rate of 3 °C/h. By means of transmission measurement it was determined whether the sample was dissolved (100 % transmission), or crystals were present. For polymorph 1 ({drug5b}), polymorph 2 ({drug5c}), hydrate 1 ({drug5e}) and hydrate 2 ({drug5f}) of compound (V) the following solubilities in a mixture of acetone and water (4:1, by volume) were determined.

SMILES: CNc1nccc(-c2cc3cc(C(=O)N[C@@H](CN(c4ccccc4)c4ncccn4)C(N)=O)ccc3[nH]2)n1 [Polymorph 1, 2-(2-methylamino-pyrimidin-4-yl)-1 H-indole-5-carboxylic acid [(S)-1-carbamoyl-2-(phenyl-pyrimidin-2-yl-amino)-ethyl]-amide]
- relative thermodynamic stability [1]: thermodynamically most stable polymorph
- relative thermodynamic stability ([1]; listed as polymorph 1): thermodynamically most stable
- solubility in water [2]: low solubility in water
- weight increase in the sorption step ([3]; Relative humidity 40 %, first cycle): 0.5 % / 0.5%
- weight increase in the sorption step ([3]; Relative humidity 40 %, second cycle): 0.5 % / 0.5%
- weight increase in the sorption step ([3]; Relative humidity 60 %, first cycle): 0.6 % / 0.6%
- weight increase in the sorption step ([3]; Relative humidity 60 %, second cycle): 0.6 % / 0.6%
- weight increase in the sorption step ([3]; Relative humidity 80 %, first cycle): 0.9 % / 0.9%
- weight increase in the sorption step ([3]; Relative humidity 80 %, second cycle): 0.9 % / 0.9%
- weight increase in the sorption step ([3]; Relative humidity 95 %, first cycle): 1.3%
- weight increase in the sorption step ([3]; Relative humidity 95 %, second cycle): 1.4%
- water uptake (hygroscopicity) ([3]; at a high relative humidity of 80 %): about 0.9%
- Solubility [g in 100 g of solvent] ([4]; Temperature 36.9 °C): 0.43 g in 100 g of solvent
- Solubility [g in 100 g of solvent] ([4]; Temperature 44.7 °C): 0.50 g in 100 g of solvent
- Solubility [g in 100 g of solvent] ([4]; Temperature 60.0 °C): 0.85 g in 100 g of solvent
